The values below come from patent US10941157B2, “Pesticidal compositions and uses thereof” (Gilead Apollo, LLC, priority 2015, dated 2021).

≈ marks a conversion by molar mass, not a printed value. A value given as a limit tells only on which side of the number the result lay.

The test system of one test is Diplodia maydis (Dm). Description: In vitro pathogen growth inhibition assay, Dm. The class given is cell-based. Conditions: Stenocarpella maydis, 48 h, ≥90% growth inhibition; 48 hours; vs 2% DMSO control; read-out: Compound Concentration (ppm) sufficient for ≥90% inhibition of Dm. Summed up: (§1)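 Spores in 17% V8 liquid medium, or 1.5 mm Rs mycelial plugs in ¼ PDB, incubated with compound; final concentration checked by OD600 for precipitation. OD readings at 24 and 48 h, blank-subtracted, plus visual ratings; value is concentration giving ≥90% growth inhibition.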

Test [1] relates to Collectotrichum graminicola (Cg). Description: In vitro pathogen growth inhibition assay, Cg. The class given is cell-based. The following applies: 48 h, ≥90% growth inhibition; 48 hours; vs 2% DMSO control; read-out: Compound Concentration (ppm) sufficient for ≥90% inhibition of Cg. The essentials: as §1
The subject of test [2] is Fusarium virguliforme (Fv). Description: In vitro pathogen growth inhibition assay, Fv. In kind it is cell-based. Conditions: ≥90% growth inhibition, 48 hours, vs 2% DMSO control, read-out: Compound Concentration (ppm) sufficient for ≥90% inhibition of Fv. Summed up: as §1
The test system of test [3] is Mycosphaerella graminicola (synthetic Septoria tritici). Briefly: Foliar protection test for wheat septoria leaf blotch control. In kind it is in vivo. Conditions: foliar spray on Triticum aestivum cv. WinterHawk, inoculated 1 hour after treatment, evaluated 16 days later.
A further test deals with Sphaerotheca fuliginea. Description: Foliar protection for cucumber powdery mildew control. In kind it is in vivo. Conditions: foliar spray on Cucumis sativus cv. Straight Eight, inoculated 24 hours after treatment, evaluated 7 days later. Summed up: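 Cucumber plants (cv. Straight Eight, 10 days old) sprayed to wetness on both leaf surfaces, then inoculated 24 h later by shaking sporulating stock plants over them. Held at 23–27 °C, 16 h light, 60% RH. Mildew colonization scored 7 days after inoculation, at compound concentrations of 10 ppm or lower.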

For a further test, the system named is Rhizoctonia solani (Rs). Description: In vitro pathogen growth inhibition assay, Rs (mycelial plugs). The class given is cell-based. Conditions: Rhizoctonia solani, 48 h, ≥90% growth inhibition; mycelial plugs; 48 hours; vs 2% DMSO control; read-out: Compound Concentration (ppm) sufficient for ≥90% inhibition of Rs. Summed up: as §1
The subject of the next test is Fusarium graminearum. The class given is in vivo. Conditions: spray on flowering Triticum aestivum cv. Samson, inoculated 24 hours after treatment, evaluated 14 days later.
The subject of test [4] is Fusarium moniliforme (Fm). Briefly: In vitro pathogen growth inhibition assay, Fm. In kind it is cell-based. Conditions: Fusarium verticillioides; ≥90% growth inhibition; 48 hours; vs 2% DMSO control; read-out: Compound Concentration (ppm) sufficient for ≥90% inhibition of Fm. Summed up: as §1
Another test concerns Septoria tritici (St). Description: In vitro pathogen growth inhibition assay, St. The class given is cell-based. The following applies: Zymoseptoria tritici, 48 h, ≥90% growth inhibition; 48 hours; vs 2% DMSO control; read-out: Compound Concentration (ppm) sufficient for ≥90% inhibition of St. The essentials: as §1
In another test the test system is Puccinia triticina. Briefly: Foliar protection test for wheat leaf rust control. In kind it is in vivo. The following applies: foliar application to wheat (Triticum aestivum cv. Winterhawk), evaluated 10 days later.
The test system of the next test is Botrtyis cinerea (Bc). Briefly: In vitro pathogen growth inhibition assay, Bc. The class given is cell-based. Conditions: 48 h, ≥90% growth inhibition; 48 hours; vs 2% DMSO control; read-out: Compound Concentration (ppm) sufficient for ≥90% inhibition of Bc. Summed up: as §1
The subject of test [5] is Phytophthora capsici (Pc). Description: In vitro pathogen growth inhibition assay, Pc. The class given is cell-based. The following applies: 48 h, ≥90% growth inhibition, 48 hours, vs 2% DMSO control, read-out: Compound Concentration (ppm) sufficient for ≥90% inhibition of Pc. Summed up: as §1
In a further test the test system is Phakopsora pachyrhizi. Briefly: Foliar protection test for Asian soybean rust control. The class given is in vivo. Conditions: foliar application to soybean (Glycine max AG4832), percent disease area evaluated 14 days later.
Test [6] concerns Blumeria graminis f. sp. hordei. Description: Foliar protection test for barley powdery mildew control. The class given is in vivo. The following applies: foliar spray on Hordeum vulgare cv. Perry, inoculated 24 hours after treatment, evaluated 7 days later. Summed up: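 Six-day-old barley (cv. Perry) sprayed to wetness on both leaf sides; 24 h later inoculated by shaking spores from infected stock plants. Kept at 20 to 22° C, 70% relative humidity; mildew colonization assessed 7 days later.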

For the compound `COc1ccc(F)cc1[C@@H](O)Cn1c(=O)n([C@@H](C)C(=O)N(C)C(C)C)c(=O)c2c(C)c(-n3nccn3)sc21` [Compound I-189, (S)-2-(1-((R)-2-(5-fluoro-2-methoxyphenyl)-2-hydroxyethyl)-5-methyl-2,4-dioxo-6-(2H-1,2,3-triazol-2-yl)-1,4-dihydrothieno[2,3-d]pyrimidin-3 (2H)-yl)-N-isopropyl-N-methylpropanamide], the IC90 was 0.4 µg/mL (≈ 0.734 µM) in the test on Diplodia maydis (Dm); 0.4 µg/mL (≈ 0.734 µM) in [1]; 0.4 µg/mL (≈ 0.734 µM) in test [2]; 0.08 µg/mL (≈ 0.147 µM) with Rhizoctonia solani (Rs); 0.08 µg/mL (≈ 0.147 µM) in test [4]; 50 µg/mL (≈ 91.8 µM) in the test with Septoria tritici (St). The IC90 with Botrtyis cinerea (Bc) was 0.4 µg/mL (≈ 0.734 µM); in test [5] it was more than 50 µg/mL. Besides, the “Septoria Leaf Blotch Control at a compound concentration of 25 ppm or lower” value in test [3] is reported as “A (from 70% to 84% control of wheat septoria leaf blotch)”. Also, the “Cucumber Powdery Mildew Control at a compound concentration of 10 ppm or lower” value in the test on Sphaerotheca fuliginea is given as “AA (≥85% control of cucumber powdery mildew)”. Also, the “Wheat Fusarium Head Blight Control at a compound concentration of 25 ppm or lower” value with Fusarium graminearum is “C (from 25 to 49% control of wheat fusarium head blight)”. For the same compound, in the test on Puccinia triticina, the “Wheat Leaf Rust Control at a compound concentration of 10 ppm or lower” value (from here on “Wheat Leaf Rust Control … of 10 ppm or lower”) is given as “AA (≥85% control of wheat leaf rust)”. The “Asian Soybean Rust Control at a compound concentration of 25 ppm or lower” value (shortened to “Asian Soybean Rust Control … of 25 ppm or lower”) in the test with Phakopsora pachyrhizi is given as “A (from 70% to 84% control of Asian soybean rust)”. Moreover, the “Barley Powdery Mildew Control at a compound concentration of 10 ppm or lower” value in [6] is given as “AA (≥85% control of barley powdery mildew)”.
Regarding `COc1ccccc1[C@H](Cn1c(=O)n(C(C)(C)C(=O)NC(C)C)c(=O)c2c(C)c(-n3cccn3)sc21)OCCC#N` [Compound I-192, (R)-2-(1-(2-(2-cyanoethoxy)-2-(2-methoxyphenyl)ethyl)-5-methyl-2,4-dioxo-6-(1H-pyrazol-1-yl)-1,4-dihydrothieno[2,3-d]pyrimidin-3 (2H)-yl)-N-isopropyl-2-methylpropanamide], the IC90 in the test with Diplodia maydis (Dm) was 2 µg/mL (≈ 3.46 µM); in test [1] it was not below 2 µg/mL; in test [2], 0.4 µg/mL (≈ 0.691 µM); in the test on Rhizoctonia solani (Rs), 0.08 µg/mL (≈ 0.138 µM); in test [4] it was 0.08 µg/mL (≈ 0.138 µM); with Septoria tritici (St), not below 50 µg/mL. For the same compound, the IC90 worked out at 0.4 µg/mL (≈ 0.691 µM) in the test on Botrtyis cinerea (Bc) and 50 µg/mL (≈ 86.4 µM) in test [5]. In test [3], the “Septoria Leaf Blotch Control at a compound concentration of 25 ppm or lower” value is given as “A (from 70% to 84% control of wheat septoria leaf blotch)”. In the test on Sphaerotheca fuliginea, the “Cucumber Powdery Mildew Control at a compound concentration of 10 ppm or lower” value is “AA (≥85% control of cucumber powdery mildew)”. In addition, the “Wheat Fusarium Head Blight Control at a compound concentration of 25 ppm or lower” value with Fusarium graminearum is “D (<25% control of wheat fusarium head blight)”. The “Wheat Leaf Rust Control … of 10 ppm or lower” value in the test on Puccinia triticina is on record as “AA (≥85% control of wheat leaf rust)”. Also, the “Asian Soybean Rust Control … of 25 ppm or lower” value in the test with Phakopsora pachyrhizi is given as “AA (≥85% control of Asian soybean rust)”. Besides, the “Barley Powdery Mildew Control at a compound concentration of 10 ppm or lower” value in test [6] is listed as “AA (≥85% control of barley powdery mildew)”.
Consider `COc1ccc(F)cc1[C@H](Cn1c(=O)n([C@H](C)C(=O)NC(C)C)c(=O)c2c(C)c(-n3nccn3)sc21)OCCC#N` [Compound I-198, (R)-2-(1-((R)-2-(2-cyanoethoxy)-2-(5-fluoro-2-methoxyphenyl)ethyl)-5-methyl-2,4-dioxo-6-(2H-1,2,3-triazol-2-yl)-1,4-dihydrothieno[2,3-d]pyrimidin-3 (2H)-yl)-N-isopropylpropanamide], for which the IC90 is 0.08 µg/mL (≈ 0.137 µM) in the test with Diplodia maydis (Dm); 0.08 µg/mL (≈ 0.137 µM) in test [1]; 0.4 µg/mL (≈ 0.685 µM) in test [2]; 0.08 µg/mL (≈ 0.137 µM) in the test on Rhizoctonia solani (Rs); 0.08 µg/mL (≈ 0.137 µM) in test [4]; not below 2 µg/mL in the test with Septoria tritici (St). Besides, the IC90 was found to be 0.4 µg/mL (≈ 0.685 µM) in the test on Botrtyis cinerea (Bc) and 2 µg/mL (≈ 3.43 µM) in test [5]. In test [3], the “Septoria Leaf Blotch Control at a compound concentration of 25 ppm or lower” value is “AA (≥85% control of wheat septoria leaf blotch)”. The “Cucumber Powdery Mildew Control at a compound concentration of 10 ppm or lower” value in the test with Sphaerotheca fuliginea is recorded as “AA (≥85% control of cucumber powdery mildew)”. For the same compound, the “Wheat Fusarium Head Blight Control at a compound concentration of 25 ppm or lower” value in the test on Fusarium graminearum was “C (from 25 to 49% control of wheat fusarium head blight)”. For the same compound, in the test with Puccinia triticina, the “Wheat Leaf Rust Control … of 10 ppm or lower” value is “AA (≥85% control of wheat leaf rust)”. In addition, the “Asian Soybean Rust Control … of 25 ppm or lower” value in the test with Phakopsora pachyrhizi is given as “AA (≥85% control of Asian soybean rust)”. Besides, the “Barley Powdery Mildew Control at a compound concentration of 10 ppm or lower” value in [6] is listed as “AA (≥85% control of barley powdery mildew)”.
As to `COc1ccc(F)cc1[C@H](Cn1c(=O)n([C@H](C)C(=O)N2CCCC2)c(=O)c2c(C)c(-n3nccn3)sc21)OCCC#N` [Compound I-202, 3-((R)-1-(5-fluoro-2-methoxyphenyl)-2-(5-methyl-2,4-dioxo-3-((R)-1-oxo-1-(pyrrolidin-1-yl)propan-2-yl)-6-(2H-1,2,3-triazol-2-yl)-3,4-dihydrothieno[2,3-d]pyrimidin-1(2H)-yl)ethoxy)propanenitrile], the IC90 in the test with Diplodia maydis (Dm) was 2 µg/mL (≈ 3.36 µM); in [1] it was 2 µg/mL (≈ 3.36 µM); in [2], 0.4 µg/mL (≈ 0.672 µM); in the test with Rhizoctonia solani (Rs), 0.4 µg/mL (≈ 0.672 µM); in test [4], 0.08 µg/mL (≈ 0.134 µM); in the test on Septoria tritici (St) it was more than 50 µg/mL. Further, the figures for the IC90 (with Botrtyis cinerea (Bc); in [5]) were not below 0.4 µg/mL and not below 50 µg/mL, respectively. The “Septoria Leaf Blotch Control at a compound concentration of 25 ppm or lower” value in [3] was “D (<25% control of wheat septoria leaf blotch)”. The “Cucumber Powdery Mildew Control at a compound concentration of 10 ppm or lower” value in the test with Sphaerotheca fuliginea was “AA (≥85% control of cucumber powdery mildew)”. Also, in the test with Fusarium graminearum, the “Wheat Fusarium Head Blight Control at a compound concentration of 25 ppm or lower” value was “D (<25% control of wheat fusarium head blight)”. Besides, the “Wheat Leaf Rust Control … of 10 ppm or lower” value with Puccinia triticina is “A (from 70% to 84% control of wheat leaf rust)”. Moreover, in the test on Phakopsora pachyrhizi, the “Asian Soybean Rust Control … of 25 ppm or lower” value is recorded as “A (from 70% to 84% control of Asian soybean rust)”. Besides, in test [6], the “Barley Powdery Mildew Control at a compound concentration of 10 ppm or lower” value is given as “A (from 70% to 84% control of barley powdery mildew)”.
Turning to `CCNC(=O)C(C)(C)n1c(=O)c2c(C)c(-n3nccn3)sc2n(C[C@H](OCCC#N)c2ccccc2OC)c1=O` [Compound I-208, (R)-2-(1-(2-(2-cyanoethoxy)-2-(2-methoxyphenyl)ethyl)-5-methyl-2,4-dioxo-6-(2H-1,2,3-triazol-2-yl)-1,4-dihydrothieno[2,3-d]pyrimidin-3 (2H)-yl)-N-ethyl-2-methylpropanamide], the IC90 in the test with Diplodia maydis (Dm) is 2 µg/mL (≈ 3.54 µM); in [1], 2 µg/mL (≈ 3.54 µM); in [2], 0.4 µg/mL (≈ 0.707 µM); with Rhizoctonia solani (Rs), 0.08 µg/mL (≈ 0.141 µM); in test [4], 0.4 µg/mL (≈ 0.707 µM); with Septoria tritici (St) it was more than 50 µg/mL. Moreover, the IC90 with Botrtyis cinerea (Bc) is 0.4 µg/mL (≈ 0.707 µM); in test [5], more than 50 µg/mL. For the same compound, the “Septoria Leaf Blotch Control at a compound concentration of 25 ppm or lower” value in test [3] is reported as “AA (≥85% control of wheat septoria leaf blotch)”. In addition, in the test with Sphaerotheca fuliginea, the “Cucumber Powdery Mildew Control at a compound concentration of 10 ppm or lower” value is “AA (≥85% control of cucumber powdery mildew)”. Also, the “Wheat Fusarium Head Blight Control at a compound concentration of 25 ppm or lower” value with Fusarium graminearum is listed as “C (from 25 to 49% control of wheat fusarium head blight)”. Also, the “Wheat Leaf Rust Control … of 10 ppm or lower” value in the test on Puccinia triticina is given as “AA (≥85% control of wheat leaf rust)”. The “Asian Soybean Rust Control … of 25 ppm or lower” value in the test on Phakopsora pachyrhizi is reported as “AA (≥85% control of Asian soybean rust)”. Besides, the “Barley Powdery Mildew Control at a compound concentration of 10 ppm or lower” value in test [6] is listed as “AA (≥85% control of barley powdery mildew)”.
